Experimental data published in ChEMBL document CHEMBL4152297, “Ligand-selective small molecule modulators of the constitutively active vGPCR US28” (Eur J Med Chem, 2018).
Activity calls are given as the source filed them. The rule behind the calls is not given here.

Columns and labels:
[1] = system: HEK293; assay: Modulation of basal activity of HCMV US28 expressed in tetracyclin-induced HEK293 cells assessed as change in inositol phosphate accumulation at 10 uM using [3H]-myo-inositol by scintillation proximity assay relative to control; format: cell-based; details: Human betaherpesvirus 5
[2] = Modulation of basal activity of HCMV US28 expressed in tetracyclin-induced HEK293 cells assessed as change in inositol phosphate accumulation using [3H]-myo-inositol by scintillation proximity assay; format: cell-based; details: Human betaherpesvirus 5, HEK293
[3] = system: HEK293; assay: Displacement of [125I]-CCL2 from HCMV US28 expressed in HEK293 cells at 10 uM after 3 hrs by gamma counting method relative to control; format: cell-based; details: Human betaherpesvirus 5
[4] = Displacement of [125I]-CCL2 from HCMV US28 expressed in HEK293 cells after 3 hrs by gamma counting method; format: cell-based, Human betaherpesvirus 5
[5] = Modulation of basal activity of HCMV US28 delta300 mutant expressed in tetracyclin-induced HEK293 cells assessed as change in inositol phosphate accumulation using [3H]-myo-inositol by scintillation proximity assay; format: cell-based; details: Human betaherpesvirus 5, HEK293
[6] = system: HEK293; assay: Modulation of basal activity of HCMV US28 delta300 mutant expressed in tetracyclin-induced HEK293 cells assessed as change in inositol phosphate accumulation at 10 uM using [3H]-myo-inositol by scintillation proximity assay relative to control; format: cell-based; details: Human betaherpesvirus 5
[7] = Agonist activity at HCMV US28 expressed in African green monkey COS7 cells assessed as increase in inositol phosphate accumulation using [3H]-myo-inositol after 90 mins by scintillation proximity assay; format: cell-based; details: Human betaherpesvirus 5, COS-7
[8] = Inverse agonist activity at HCMV US28 expressed in African green monkey COS7 cells assessed as inhibition of inositol phosphate accumulation using [3H]-myo-inositol by liquid scintillation counting method; format: cell-based; details: Human betaherpesvirus 5, COS-7
[9] = system: HEK293; assay: Displacement of [125I]-CX3CL1 from HCMV US28 expressed in HEK293 cells at 10 uM after 3 hrs by gamma counting method relative to control; format: cell-based; details: Human betaherpesvirus 5
[10] = system: HEK293; assay: Displacement of [125I]-CCL4 from HCMV US28 expressed in HEK293 cells at 10 uM after 3 hrs by gamma counting method relative to control; format: cell-based; details: Human betaherpesvirus 5
[11] = system: HEK293; assay: Effect on inositol phosphate accumulation in HEK293 cells at 10 uM using [3H]-myo-inositol by scintillation proximity assay; format: cell-based; details: human, hek293, 10 µM
[12] = Inverse agonist activity at HCMV US28 expressed in African green monkey COS7 cells assessed as inhibition of inositol phosphate accumulation using [3H]-myo-inositol after 90 mins by scintillation proximity assay; format: cell-based; details: Human betaherpesvirus 5, COS-7

| EC50 ([2]; read-out: EC50) [nM] | EC50 ([2]; read-out: pEC50 (converted)) [nM] | SMILES | Efficacy [1] [%] | Efficacy [3] [%] | EC50 ([5]; read-out: EC50) [nM] | EC50 ([5]; read-out: pEC50 (converted)) [nM] | Efficacy [6] [%] | other results |
| --- | --- | --- | --- | --- | --- | --- | --- | --- |
|  |  | O=C(CN1CCN(CC2CCCCC2)CC1)Nc1ccc(F)cc1 | -15 |  |  |  |  |  |
| 1800 | 2000 | COc1ccc(-c2csc(NC(=O)CN3CCN(Cc4ccc5c(c4)OCO5)CC3)n2)cc1 | -30 |  |  |  |  |  |
|  |  | O=C(CN1CCC(Cn2cnc3ccccc32)CC1)Nc1nc2ccc(F)cc2s1 |  | 20 |  |  |  | IC50 [4]: > 10000 nM |
|  |  | NC(=O)c1ccc(NC(=O)CN2CCC(Cn3cnc4ccccc43)CC2)cc1 |  | -4 |  |  |  |  |
| 3840 | 3980 | CC(C(=O)Nc1sccc1C(N)=O)N1CCN(Cc2nc3ccccc3s2)CC1 (centres undefined) | -46 |  |  |  |  |  |
|  |  | COC(=O)c1ccc(NC(=O)CN2CCC(Cn3c(C)nc4ccccc43)CC2)cc1 |  | 32 | 884 | 794 | 70 | IC50 [4]: 9560 nM; pIC50 [4]: 5.02 |
|  |  | CNC(=O)NC(=O)CN1CCC(Cn2c(C)nc3ccccc32)CC1 |  | 0 |  |  |  |  |
|  |  | Cc1nc2ccccc2n1CC1CCN(CC(=O)NCCc2ccccc2)CC1 |  |  | 1800 | 2000 | 107 | IC50 [4]: 5290 nM |
|  |  | O=C(CN1CCN(Cc2csc3ccccc23)CC1)NC1CCCC1 |  |  | > 10000 | < 10000 | 56 |  |
|  |  | Cc1ncc(CN2CCN(CC(=O)Nc3ccc(F)cc3)CC2)s1 | -20 |  |  |  |  |  |
|  |  | CC(=O)c1ccc(N2CCN(Cc3nc4scc(-c5ccccc5)c4c(=O)[nH]3)CC2)cc1 |  |  |  |  |  | EC50 [7]: 950 nM |
|  |  | CCc1ccc(-c2nc(CN3CCN(CC(=O)NC4CC4)CC3)cs2)cc1 |  |  | 11000 | 10000 | 51 |  |
| 1570 | 1550 to 1580 | O=C(CN1CCC(C(=O)N2CCN(c3ccc(F)cc3)CC2)CC1)Nc1ccc(F)cc1 | -32 |  |  |  |  |  |
| 33 | 31.6 | Cc1cc2ncn(CC3CCN(CC(=O)NCc4ccc(F)cc4)CC3)c2cc1C | -16 | 25 |  |  |  | IC50 [4]: > 10000 nM |
| 1140 | 1260 | O=C(CN1CCC(Cn2c(C(F)(F)F)nc3ccccc32)CC1)Nc1ccccc1C(F)(F)F | -28 |  |  |  |  |  |
|  |  | O=C(CN1CCN(Cc2csc(-c3ccccc3)n2)CC1)Nc1ccc(F)cc1 | -17 |  |  |  |  |  |
| 9370 | 10000 | O=C(CN1CCN(Cc2nc3ccccc3n2Cc2ccccc2)CC1)Nc1ccccc1F | -20 |  |  |  |  |  |

| EC50 ([2]; read-out: EC50) [nM] | EC50 ([2]; read-out: pEC50 (converted)) [nM] | SMILES | Efficacy [1] [%] | Efficacy [3] [%] | EC50 ([5]; read-out: EC50) [nM] | EC50 ([5]; read-out: pEC50 (converted)) [nM] | Efficacy [6] [%] | other results |
| --- | --- | --- | --- | --- | --- | --- | --- | --- |
| 344 | 316 | Cc1nc2ccccc2n1CC1CCN(CC(=O)Nc2cc(C(F)(F)F)ccc2Cl)CC1 | -43 | 24 |  |  |  | IC50 [4]: 2990 nM; pIC50 [4]: 5.52 |
| 536 | 501 | O=C(CN1CCN(CN2C(=O)NC3(CCCCC3)C2=O)CC1)Nc1ccc(OC(F)(F)F)cc1 | -12 |  |  |  |  |  |
|  |  | O=C(CN1CCC(Cn2cnc3ccccc32)CC1)Nc1nccs1 |  | 5 |  |  |  |  |
| 67 | 63.1 | N#Cc1c(CN2CCN(CC(=O)Nc3ccccc3Cl)CC2)cn2ccccc12 | -15 |  |  |  |  |  |
|  |  | O=C(CN1CCN(Cc2nc3ccccc3[nH]2)CC1)Nc1ccc(F)cc1F |  | -7 |  |  |  |  |
|  |  | Cc1cc(C)n(CC2CCN(CC(=O)N3CCc4ccccc43)CC2)n1 |  |  | > 10000 | < 10000 | 76 |  |
|  |  | Cc1sc2nc(CN3CCN(CC(=O)NC4CCC(C)CC4)CC3)[nH]c(=O)c2c1C (centres undefined) |  |  | 1560 | 1580 | 118 | inhibition [9]: 32%; inhibition [3]: Active |
|  |  | Cc1cc2ncn(CC3CCN(CC(=O)Nc4ccc5c(c4)OCO5)CC3)c2cc1C |  |  | 1520 | 1580 | 58 |  |
|  |  | Cn1c(CN2CCN(CC(=O)Nc3ccc(OC(F)(F)F)cc3)CC2)nc2ccccc21 |  | 7 | 3360 | 3160 | 59 |  |
|  |  | Cc1nc2ccccc2n1CC1CCN(CC(=O)Nc2cccnc2)CC1 |  | -2 |  |  |  |  |
| 89 | 100 | NC(=O)c1c(NC(=O)CN2CCN(Cc3ccc4c(c3)OCO4)CC2)sc2c1CCCC2 | -31 |  |  |  |  |  |
|  |  | Cc1ccc2nc(CN3CCN(CC(=O)Nc4ccc(F)cc4)CC3)cc(=O)n2c1 | -10 |  |  |  |  |  |
| 985 | 1000 | Cc1nc2ccccc2n1CC1CCN(CC(=O)Nc2ccc(F)cc2F)CC1 | -39 | 10 |  |  |  | EC50 [12]: 1760 nM; inhibition [9]: inactive; inhibition [10]: 10% |
|  |  | O=C(CN1CCC(Cn2cnc3ccccc32)CC1)Nc1ccccn1 |  | 10 |  |  |  |  |
|  |  | NC(=O)c1ccc(NC(=O)CN2CCC(Cn3c(COc4ccccc4)nc4ccccc43)CC2)cc1 |  |  | 7960 | 7940 | 77 |  |
|  |  | Cc1nc2ccccc2n1CC1CCN(Cc2ccc(F)c(F)c2)CC1 |  | 46 | 1480 | 1580 | 93 | IC50 [4]: 5260 nM; pIC50 [4]: 5.28 |
| 19100 | 20000 | O=C(CN1CCN(Cc2nc(-c3cccc(C(F)(F)F)c3)no2)CC1)NC1CCCCC1 | -23 |  |  |  |  |  |

| SMILES | EC50 ([2]; read-out: EC50) [nM] | EC50 ([2]; read-out: pEC50 (converted)) [nM] | Efficacy [1] [%] | Efficacy [3] [%] | EC50 ([5]; read-out: EC50) [nM] | EC50 ([5]; read-out: pEC50 (converted)) [nM] | Efficacy [6] [%] | other results |
| --- | --- | --- | --- | --- | --- | --- | --- | --- |
| O=C(CN1CCC(Cn2cnc3ccccc32)CC1)N1CCN(c2ccccc2)CC1 | 3890 | 3980 | -27 |  | 4800 | 5010 | 77 |  |
| Cc1cc2ncn(CC3CCN(CC(=O)Nc4ccccc4C(F)(F)F)CC3)c2cc1C | 80700 | 79400 | -12 |  | 19800 | 20000 | 54 |  |
| O=C(CN1CCN(Cc2cccc3ccccc23)CC1)Nc1ccc2c(c1)OCO2 | 39 | 39.8 | -24 |  | > 10000 | < 10000 | 53 |  |
| N#CC(CCCN1CCC(O)(c2ccc(Cl)cc2)CC1)(c1ccccc1)c1ccccc1 [BERLEX COMPOUND] | 10000 | 10000 | -31 | 60 | 860 | 794 | 99 | EC50 [8]: 3500 nM; inhibition [9]: inactive; inhibition [10]: 65% |
| Cn1c(CN2CCN(CC(=O)Nc3ccc(F)cc3F)CC2)nc2ccccc21 | 133 | 126 | -15 | 6 | 9880 | 10000 | 75 |  |
| Cc1nc2ccccc2n1CC1CCN(CC(=O)Nc2ccc(OC(F)(F)F)cc2)CC1 | 269 | 251 | 26 | 78 | 103 | 100 | 86 | inhibition [9]: 32%; IC50 [4]: 2110 nM; pIC50 [4]: 5.68 |
| O=C(CN1CCN(Cc2nc(-c3ccc(F)cc3)no2)CC1)Nc1ccc(F)cc1 | 3040 | 3020 to 3160 | -54 |  | 1140 | 1260 | -23 | Activity [11]: Toxic |
| Cc1ccc(NC(=O)CN2CCC(Cn3cnc4ccccc43)CC2)cc1Cl | 254 | 251 | 21 | 71 | 182 | 200 | 50 | IC50 [4]: 1520 nM; pIC50 [4]: 5.82 |
